Experimental findings from patent US20220168258A1, “METHOD FOR TREATING FEMALE NON-SMOKERS WITH NON-SMALL CELL LUNG CANCER” (Lantern Pharma Inc., priority 2019, published 2022) are described below.

For data set [1], the system named is chemotherapy-induced toxicities. To be noted: human, in vivo.
For data set [2], the system named is female adenocarcinoma patients. To be noted: double-blind, placebo-controlled trial, Japan.
The subject of data set [3] is NSCLC adenocarcinoma patients.

On to disodium 2′-dithio-bis-ethane, for which, in data set [1], the anemia result is listed as “reduced anemia”; the chemotherapy-induced kidney toxicity entry was “protection against chemotherapy-induced kidney toxicity”; the “neuropathy and other chemotherapy-induced toxicities” value is on record as “protect against neuropathy & other chemotherapy-induced toxicities”. Further, the “survival result in female adenocarcinoma patients” value in data set [2] is given as “Consistent statistically significant results”. Also, the “survival in all genders and smoking status groups” value in data set [3] (all genders and smoking status groups) was “marginally increased survival”. For the same substance, the “clinical efficacy endpoints and subgroup responses” value in data set [3] (background statement) is on record as “did not meet clinical efficacy endpoints”. Also, in data set [3] (female non-smokers, increase from 13 months), the “survival in female non-smokers” value amounted to 25 months. Moreover, in data set [3] (females non-smokers), the “percentage of patients undergoing treatment failure (FIG. 3)” value was “the least”. Moreover, in data set [3] (females with advanced adenocarcinoma of the lung receiving paclitaxel/cisplatin), the 2-year survival amounted to 51.4%. The overall survival in data set [3] (females with advanced adenocarcinoma of the lung receiving paclitaxel/cisplatin, subgroup of 114 female patients, retrospective analysis) was determined as 25.0 months. Further, the “overall survival benefit (FIG. 1)” value in data set [3] (females, non-smokers and female non-smokers receiving Cisplatin/Paclitaxel) is listed as “remarkable survival benefit”. Also, the “percentage of patients undergoing treatment failure (FIG. 2)” value in data set [3] (non-smokers) is “the least”. The “HR (overall survival)” value in data set [3] (subgroup of 114 female patients, retrospective analysis, p-value=0.0477) was 0.579.
